Data published in patent publication US12024506B2, “Compounds” (Oxford University Innovation Limited, priority 2018, dated 2024).

Target: T1, GST-human KRas166 (G12V) GPPNHP (Homo sapiens, UniProt P01116, G12V)
T1 construct: made in house; host or cells: E. coli C41(DE3)
Experiment: KRas small-molecule screening by SPR (Biacore T200)
Format: binding
Conditions: compound 100 uM, 5% DMSO buffer; immobilised GST-KRas166 (G12V) GPPNHP
Method: For SPR assays pGEX-KRAS(G12V) plasmid was transformed into E. coli C41(DE3). Bacterial cells were cultured at 37° C. to an OD600 of 0.6 and induced with IPTG (final 0.1 mM) at 18° C. over night. The GST fusion proteins were extracted from bacteria pellets after cell disruption in 140 mM NaCl, 2.7 mM KCl, 10 mM NaH2PO4, 1.8 mM KH2PO4, 1 mM EDTA, 2 mM MgCl2 pH 7.4 and purified by glutathione-sepharose column chromatography (GE Healthcare), eluting with 50 mM Tris-HCl pH8.0, 10 mM reduced glutathione, 1 mM DTT, 2 mM MgCl2. The eluted proteins were dialysed against 50 mM Tris-HCl pH8.0, 1 mM DTT, 2 mM MgCl2 and concentrated to 10 mg/ml using a Biomax-30 ULTRAFREE-15 centrifugal filter device (Millipore). Purified KRAS protein was loaded with GPPNHP as described elsewhere (Pacold et al., 2000). Loaded protein was then purified by gel filtration on a HiLoad Superdex-75 HR column (GE Healthcare) in 1×PBS pH7.4, 5 mM MgCl2 and concentrated for storage.
Protocol for KRas Small-Molecule Screening and Affinity Measurements by SPR
To a previously immobilized CM5 chip (GE Healthcare BR-1005-30) with anti GST antibody via amine coupling method, GST in channel 1 and GST-human KRas166 (G12V) GPPNHP in channel 2 were immobilised. GST was immobilised between 2,000 and 5,000 Response units. KRAS166 (G12V) was immobilized between 10,000 to 15,000 Response Units.
In a 96 well plate, compounds were diluted in […], 5 mM MgCl2 and 5% DMSO Buffer to a final concentration of 100 uM. DCAl was used as positive control. Experiment also included a solvent correction curve for 5% DMSO. Screening and evaluation of the protein immobilization and the compounds screening was done accordingly to the BIACORE T200 control and evaluation software.
Calculations for how many response units are required for a 1:1 ratio of compound/protein interaction are shown below. • Protein immobilisation: 10,000 RU; average fragment 300 Da in size. • Rmax=(MWA/MWL)×RL×SM • MWA is the molecular weight of the analyte in Da • MWL is the molecular weight of the ligand in Da • RL is the immobilization level in RU • SM is the molar stoichiometry (assume 1:1) • Rmax=300/47,500×10,000×1 • Rmax=63 RU. Cell Viability Assay protocols Assay 1

| SMILES | SPR Response Units |
| --- | --- |
| COc1cccc(-c2cccc3c2OCCO3)n1 [Example 1, 2-(2,3-Dihydro-benzo[1,4]dioxin-5-yl)-6-methoxy-pyridine] | 10 Response Units |
| COc1cccc(-c2cccc3c2OC(CO)CO3)n1 (stereo not drawn) [Example 2, [8-(6-Methoxy-pyridin-2-yl)-2,3-dihydro-benzo[1,4]dioxin-2-yl]-methanol] | 17 Response Units |
| COc1cc(N)cc(-c2cccc3c2OCCO3)n1 [Example 3, 2-(2,3-Dihydro-benzo[1,4]dioxin-5-yl)-6-methoxy-pyridin-4-ylamine] | 16 Response Units |
| COc1cc(NC(=O)C2CCN(C)CC2)cc(-c2cccc3c2OCCO3)n1 [Example 4, 1-Methyl-piperidine-4-carboxylic acid [2-(2,3-dihydro-benzo[1,4]dioxin-5-yl)-6-methoxy-pyridin-4-yl]-amide] | 37 Response Units |
| COc1cc(NC(=O)[C@@H]2CCNC2)cc(-c2cccc3c2OCCO3)n1 [Example 17, (R)-Pyrrolidine-3-carboxylic acid [2-(2,3-dihydro-benzo[1,4]dioxin-5-yl)-6-methoxy-pyridin-4-yl]-amide] | 84 Response Units |
| COc1cc(NC(=O)[C@H]2CNCCO2)cc(-c2cccc3c2OCCO3)n1 [Example 18, (R)-Morpholine-2-carboxylic acid [2-(2,3-dihydro-benzo[1,4]dioxin-5-yl)-6-methoxy-pyridin-4-yl]-amide] | 71 Response Units |
| COc1cc(NC(=O)C2CCNCC2)cc(-c2cccc3c2OCCO3)n1 [Example 19, Piperidine-4-carboxylic acid [2-(2,3-dihydro-benzo[1,4]dioxin-5-yl)-6-methoxy-pyridin-4-yl]-amide] | 100 Response Units |
| COc1cc(NC(=O)[C@@H]2CNCCO2)cc(-c2cccc3c2OCCO3)n1 [Example 20, (S)-Morpholine-2-carboxylic acid [2-(2,3-dihydro-benzo[1,4]dioxin-5-yl)-6-methoxy-pyridin-4-yl]-amide] | 80 Response Units |
| COc1cc(NC(=O)[C@H]2CC[C@@H](N)CC2)cc(-c2cccc3c2OCCO3)n1 [Example 21, 4-Amino-cyclohexanecarboxylic acid [2-(2,3-dihydro-benzo[1,4]dioxin-5-yl)-6-methoxy-pyridin-4-yl]-amide] | 66 Response Units |
| COc1cc(NC(=O)N(C)C2CCN(C)CC2)cc(-c2cccc3c2OCCO3)n1 [Example 22, 3-[2-(2,3-Dihydro-benzo[1,4]dioxin-5-yl)-6-methoxy-pyridin-4-yl]-1-methyl-1-(1-methyl-piperidin-4-yl)-urea] | 55 Response Units |
| COc1cc(NC(=O)N2CCN(C)CC2)cc(-c2cccc3c2OCCO3)n1 [Example 23, 4-Methyl-piperazine-1-carboxylic acid [2-(2,3-dihydro-benzo[1,4]dioxin-5-yl)-6-methoxy-pyridin-4-yl]-amide] | 58 Response Units |
| COc1cccc(-c2cccc3c2OC(CNCC2CCN(C)CC2)CO3)n1 (stereo not drawn) [Example 27, [8-(6-Methoxy-pyridin-2-yl)-2,3-dihydro-benzo[1,4]dioxin-2-ylmethyl]-(1-methyl-piperidin-4-ylmethyl)-amine] | 58 Response Units |
| COc1cccc(-c2cccc3c2OC(CNCc2cccnc2)CO3)n1 (stereo not drawn) [Example 28, [8-(6-Methoxy-pyridin-2-yl)-2,3-dihydro-benzo[1,4]dioxin-2-ylmethyl]-pyridin-3-ylmethyl-amine] | 28 Response Units |
| COc1cccc(-c2cccc3c2OC(CNCC2CCOCC2)CO3)n1 (stereo not drawn) [Example 29, [8-(6-Methoxy-pyridin-2-yl)-2,3-dihydro-benzo[1,4]dioxin-2-ylmethyl]-(tetrahydro-pyran-4-ylmethyl)-amine] | 14 Response Units |
| COc1cccc(-c2cccc3c2OC(CNCC2CCN(C(=O)c4cnccn4)CC2)CO3)n1 (stereo not drawn) [Example 29a, [4-({[8-(6-Methoxy-pyridin-2-yl)-2,3-dihydro-benzo[1,4]dioxin-2-ylmethyl]-amino}-methyl)-piperidin-1-yl]-pyrazin-2-yl-methanone] | 26 Response Units |
| COc1cccc(-c2cccc3c2OC(CNCC2CCN(C(=O)C4CCOCC4)CC2)CO3)n1 (stereo not drawn) [Example 30, [4-({[8-(6-Methoxy-pyridin-2-yl)-2,3-dihydro-benzo[1,4]dioxin-2-ylmethyl]-amino}-methyl)-piperidin-1-yl]-(tetrahydro-pyran-4-yl)-methanone] | 42 Response Units |
| COc1cccc(-c2cccc3c2OC(CN2C(=O)NC4(CCN(C)CC4)C2=O)CO3)n1 (stereo not drawn) [Example 34, 3-[8-(6-Methoxy-pyridin-2-yl)-2,3-dihydro-benzo[1,4]dioxin-2-ylmethyl]-8-methyl-1,3,8-triaza-spiro[4.5]decane-2,4-dione] | 37 Response Units |
| COc1cccc(-c2cccc3c2OC(CN2C(=O)NC(C)(C)C2=O)CO3)n1 (stereo not drawn) [Example 35, 3-[8-(6-Methoxy-pyridin-2-yl)-2,3-dihydro-benzo[1,4]dioxin-2-ylmethyl]-5,5-dimethyl-imidazolidine-2,4-dione] | 33 Response Units |
| COc1ccc(N2CC(=O)N(CC3COc4cccc(-c5cccc(OC)n5)c4O3)C2=O)cn1 (stereo not drawn) [Example 36, 1-(6-Methoxy-pyridin-3-yl)-3-[8-(6-methoxy-pyridin-2-yl)-2,3-dihydro-benzo[1,4]dioxin-2-ylmethyl]-imidazolidine-2,4-dione] | 58 Response Units |
| COc1cccc(-c2cccc3c2OC(CN2C(=O)CN(C4CCNCC4)C2=O)CO3)n1 (stereo not drawn) [Example 37, 3-[8-(6-Methoxy-pyridin-2-yl)-2,3-dihydro-benzo[1,4]dioxin-2-ylmethyl]-1-piperidin-4-yl-imidazolidine-2,4-dione] | 31 Response Units |
| CN1CCN(Cc2ccc(C(=O)NCC3COc4cccc(-c5ccn[nH]5)c4O3)o2)CC1 (stereo not drawn) [Example 42, 5-(4-Methyl-piperazin-1-ylmethyl)-furan-2-carboxylic acid [8-(2H-pyrazol-3-yl)-2,3-dihydro-benzo[1,4]dioxin-2-ylmethyl]-amide] | 62 Response Units |
| COc1cccc(-c2cccc3c2O[C@@H](CNC(=O)c2ccc(CN4CCN(C)CC4)o2)CO3)n1 [Example 44, 5-(4-Methyl-piperazin-1-ylmethyl)-furan-2-carboxylic acid [(S)-8-(6-methoxy-pyridin-2-yl)-2,3-dihydro-benzo[1,4]dioxin-2-ylmethyl]-amide] | 42 Response Units |
| COc1cccc(-c2cccc3c2OC(CNC(=O)C2CCOCC2)CO3)n1 (stereo not drawn) [Example 45, Tetrahydro-pyran-4-carboxylic acid [8-(6-methoxy-pyridin-2-yl)-2,3-dihydro-benzo[1,4]dioxin-2-ylmethyl]-amide] | 12 Response Units |
| COc1ccc(-c2cccc3c2OC(CNC(=O)c2ccc(CN4CCN(C)CC4)o2)CO3)cn1 (stereo not drawn) [Example 45a, 5-(4-Methyl-piperazin-1-ylmethyl)-furan-2-carboxylic acid [8-(6-methoxy-pyridin-3-yl)-2,3-dihydro-benzo[1,4]dioxin-2-ylmethyl]-amide] | 90 Response Units |
| COc1cccc(-c2cccc3c2OC(CNC(=O)CCN(C)C)CO3)n1 (stereo not drawn) [Example 47, 3-Dimethylamino-N-[8-(6-methoxy-pyridin-2-yl)-2,3-dihydro-benzo[1,4]dioxin-2-ylmethyl]-propionamide] | 16 Response Units |
| COc1cccc(-c2cccc3c2O[C@H](CNC(=O)C2CCN(Cc4cnccn4)CC2)CO3)n1 [Example 48, 1-Pyrazin-2-ylmethyl-piperidine-4-carboxylic acid [(R)-8-(6-methoxy-pyridin-2-yl)-2,3-dihydro-benzo[1,4]dioxin-2-ylmethyl]-amide] | 54 Response Units |
| COc1cccc(-c2cccc3c2OC(CNC(=O)C2CCN(C)CC2)CO3)n1 (stereo not drawn) [Example 50, 1-Methyl-piperidine-4-carboxylic acid [8-(6-methoxy-pyridin-2-yl)-2,3-dihydro-benzo[1,4]dioxin-2-ylmethyl]-amide] | 14 Response Units |
